Measurements published in patent publication US11806342B2, “Diiodohydroxyquinoline for the treatment of clostridium difficile infection” (Purdue Research Foundation, priority 2019, dated 2023).
Converted amounts (≈) assume the structure as drawn.

How the values were obtained:
Assay in all cases: MIC and MBC, broth microdilution
Type in all cases: cell-based, Clostridium difficile
C. difficile ATCC 9689 = settings: Clostridioides difficile, ATCC9689
How it was run: (§1)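 After the MIC read, contents of clear wells are spotted onto BHIS agar plates. The bactericidal endpoint is the lowest drug level achieving 99.9% growth reduction; MIC50 and MIC90 denote concentrations inhibiting half and nine-tenths of the isolate panel.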

C. difficile P11 = settings: Clostridioides difficile, P11
How it was run: as §1

C. difficile HM-89 = settings: Clostridioides difficile, HM89
How it was run: as §1

C. difficile NR-49281 = settings: Clostridioides difficile, NR49281
How it was run: as §1

C. difficile I4 = settings: Clostridioides difficile, I4
How it was run: as §1

[1] = system: C. difficile ATCC BAA-1870; settings: Clostridioides difficile, ATCCBAA1870
How it was run: as §1

C. difficile I2 = settings: Clostridioides difficile, I2
How it was run: as §1

C. difficile NR-49277 = settings: Clostridioides difficile, NR49277
How it was run: as §1

C. difficile P2 = settings: Clostridioides difficile, P2
How it was run: as §1

C. difficile NR-49290 = settings: Clostridioides difficile, NR49290
How it was run: as §1

C. difficile P13 = settings: Clostridioides difficile, P13
How it was run: as §1

C. difficile P20 = settings: Clostridioides difficile, P20
Protocol: (§2) Antibacterial activity of Diiodohydroxyquinoline against a wide panel of Clostridium difficile strains. […] MIC50 and MIC90 are the minimum concentration of each agent that inhibited growth of 50% and 90% of the tested isolates, respectively. The minimum bactericidal concentration (MBC) of these drugs was tested by plating 5 μL from wells with no growth onto BHIS agar plates. The MBC was categorized as the lowest concentration that reduced bacterial growth by 99.9% MIC50 and MIC90 are the minimum concentration of each agent that inhibited the growth of 50% and 90% of the tested isolates, respectively. The minimum bactericidal concentration (MBC) of these drugs was tested by plating 5 μL from wells with no growth onto BHIS agar plates. The MBC was categorized as the lowest concentration that reduced bacterial growth by 99.9% [29-31].

C. difficile P15 = settings: Clostridioides difficile, P15
Protocol: as §2

C. difficile P30 = settings: Clostridioides difficile, P30
Protocol: as §2

C. difficile I10 = settings: Clostridioides difficile, I10
Protocol: as §2

C. difficile NR-49285 = settings: Clostridioides difficile, NR49285
Protocol: as §2

C. difficile P19 = settings: Clostridioides difficile, P19
Protocol: as §2

C. difficile P3 = settings: Clostridioides difficile, P3
Protocol: as §2

C. difficile ATCC 43255 = settings: Clostridioides difficile, ATCC43255
Protocol: as §2

C. difficile I9 = settings: Clostridioides difficile, I9
Protocol: as §2

C. difficile NR-49288 = settings: Clostridioides difficile, NR49288
Protocol: as §2

C. difficile I11 = settings: Clostridioides difficile, I11
Protocol: as §2

C. difficile I13 = settings: Clostridioides difficile, I13
Protocol: as §2

C. difficile ATCC 1801 = settings: Clostridioides difficile, ATCC1801
Protocol: as §2

C. difficile P5 = settings: Clostridioides difficile, P5
Protocol: as §2

C. difficile NR-49278 = settings: Clostridioides difficile, NR49278
Protocol: as §2

C. difficile HM-745 = settings: Clostridioides difficile, HM745
Protocol: as §2

In the case of `CN[C@H](CC(C)C)C(=O)N[C@H]1C(=O)N[C@@H](CC(N)=O)C(=O)N[C@H]2C(=O)N[C@H]3C(=O)N[C@H](C(=O)N[C@H](C(=O)O)c4cc(O)cc(O)c4-c4cc3ccc4O)[C@H](O)c3ccc(c(Cl)c3)Oc3cc2cc(c3O[C@@H]2O[C@H](CO)[C@@H](O)[C@H](O)[C@H]2O[C@H]2C[C@](C)(N)[C@H](O)[C@H](C)O2)Oc2ccc(cc2Cl)[C@H]1O` [Vancomycin, vancomycin], the MBC (C. difficile ATCC 9689) is reported as 1 µg/mL (≈ 0.69 µM), the MIC (C. difficile ATCC 9689) is reported as 0.5 µg/mL (≈ 0.345 µM) and the MBC (C. difficile P11) is reported as 1 µg/mL (≈ 0.69 µM). It also gave an MIC (C. difficile P11) of 1 µg/mL (≈ 0.69 µM), an MBC (C. difficile HM-89) of 1 µg/mL (≈ 0.69 µM) and an MIC (C. difficile HM-89) of 1 µg/mL (≈ 0.69 µM). It also gave an MBC (C. difficile NR-49281) of 0.25 µg/mL (≈ 0.173 µM), an MIC (C. difficile NR-49281) of 0.25 µg/mL (≈ 0.173 µM) and an MBC (C. difficile I4) of 0.5 µg/mL (≈ 0.345 µM). The MIC (C. difficile I4) was 0.5 µg/mL (≈ 0.345 µM), the MBC [1] was 1 µg/mL (≈ 0.69 µM) and the MIC [1] was 1 µg/mL (≈ 0.69 µM). The MBC (C. difficile I2) was 1 µg/mL (≈ 0.69 µM), the MIC (C. difficile I2) was 1 µg/mL (≈ 0.69 µM) and the MBC (C. difficile NR-49277) was 1 µg/mL (≈ 0.69 µM). The MIC (C. difficile NR-49277) was 1 µg/mL (≈ 0.69 µM), the MBC (C. difficile P2) was 1 µg/mL (≈ 0.69 µM) and the MIC (C. difficile P2) was 1 µg/mL (≈ 0.69 µM). The MBC (C. difficile NR-49290) was 1 µg/mL (≈ 0.69 µM), the MIC (C. difficile NR-49290) was 0.5 µg/mL (≈ 0.345 µM) and the MBC (C. difficile P13) was 0.5 µg/mL (≈ 0.345 µM). It also gave an MIC (C. difficile P13) of 0.5 µg/mL (≈ 0.345 µM), an MBC (C. difficile P20) of 1 µg/mL (≈ 0.69 µM) and an MIC (C. difficile P20) of 1 µg/mL (≈ 0.69 µM). For the same compound, the MBC (C. difficile P15) was 1 µg/mL (≈ 0.69 µM), the MIC (C. difficile P15) was 1 µg/mL (≈ 0.69 µM) and the MBC (C. difficile P30) was 0.5 µg/mL (≈ 0.345 µM). For the same compound, the MIC (C. difficile P30) was 0.5 µg/mL (≈ 0.345 µM), the MBC (C. difficile I10) was 1 µg/mL (≈ 0.69 µM) and the MIC (C. difficile I10) was 0.5 µg/mL (≈ 0.345 µM). For the same compound, the MBC (C. difficile NR-49285) was 0.5 µg/mL (≈ 0.345 µM), the MIC (C. difficile NR-49285) was 0.5 µg/mL (≈ 0.345 µM) and the MBC (C. difficile P19) was 1 µg/mL (≈ 0.69 µM). It also gave an MIC (C. difficile P19) of 1 µg/mL (≈ 0.69 µM), an MBC (C. difficile P3) of 1 µg/mL (≈ 0.69 µM) and an MIC (C. difficile P3) of 1 µg/mL (≈ 0.69 µM). For the same compound, the MBC (C. difficile ATCC 43255) was 1 µg/mL (≈ 0.69 µM), the MIC (C. difficile ATCC 43255) was 1 µg/mL (≈ 0.69 µM) and the MBC (C. difficile I9) was 0.5 µg/mL (≈ 0.345 µM). For the same compound, the MIC (C. difficile I9) was 0.5 µg/mL (≈ 0.345 µM), the MBC (C. difficile NR-49288) was 1 µg/mL (≈ 0.69 µM) and the MIC (C. difficile NR-49288) was 0.5 µg/mL (≈ 0.345 µM). It also gave an MBC (C. difficile I11) of 1 µg/mL (≈ 0.69 µM), an MIC (C. difficile I11) of 1 µg/mL (≈ 0.69 µM) and an MBC (C. difficile I13) of 1 µg/mL (≈ 0.69 µM). The MIC (C. difficile I13) was 1 µg/mL (≈ 0.69 µM), the MBC (C. difficile ATCC 1801) was 1 µg/mL (≈ 0.69 µM) and the MIC (C. difficile ATCC 1801) was 1 µg/mL (≈ 0.69 µM). The MBC (C. difficile P5) was 0.5 µg/mL (≈ 0.345 µM), the MIC (C. difficile P5) was 0.5 µg/mL (≈ 0.345 µM) and the MBC (C. difficile NR-49278) was 0.5 µg/mL (≈ 0.345 µM). The MIC (C. difficile NR-49278) was 0.25 µg/mL (≈ 0.173 µM), the MBC (C. difficile HM-745) was 1 µg/mL (≈ 0.69 µM) and the MIC (C. difficile HM-745) was 1 µg/mL (≈ 0.69 µM).
